In US11617711B2, “Compositions and methods for dental care” (UNIVERSITY OF WASHINGTON, priority 2018, dated 2023):
Entries after “also recorded” stand apart in the source; their conditions may differ.

Legend:
[1] = Fluoride delivery to tooth surface, EDXS of mineral layer; settings: tooth surface treated with shADP5, then ionic fluoride (1100 ppm) delivered with ionic PO4
Description: shADP5 enables the delivery of ionic fluoride delivery to the tooth surface. After the tooth surface was treated shADP5, ionic fluoride was delivered with ionic PO4.

[2] = Visual observation of diffusion and mineralization reaction of calcium and phosphate gels on glass slide; format: physicochemical; settings: gel formulation, calcium and phosphate gel drops on glass slide
Description: Active ingredients stored separately in their respective gel/varnish/toothpaste formulations is important in preventing premature mineralization reactions. In all formulations, the peptide is to be delivered first, then the ionic calcium/phosphate or ionic calcium/phosphate/fluoride are delivered second. Understanding the reaction time is useful to characterize the prescribed treatment time and procedure. To inform treatment protocol, an experiment was designed in which two drops of gels containing calcium and phosphate were mixed with peptide gel and placed next each other on a glass slide close enough that upon subsequent spreading of the two droplets, they would come to contact with each other at their respective edges. Mineralization reactions were monitored visually be observing parts of the gels turning from clear (unreacted) to white (reacted).
Then the inverses of both quantities were taken to enable the determination of the diffusion constant based on the following equation: 1/t=D (1/x), where t is time, x is the width of reacted mineral (appear as white in FIG. 18) and D is the diffusion constant in units of mm/min. Shown in FIG. 19 is an example of the derived diffusion constants.

[3] = Thermal cycling of remineralized dentin samples in artificial saliva, SEM; design: species or system human; settings: 3 rounds remineralized, 2,500 cycles (90 days) between 5 C and 50 C
Description: To ensure the thermal durability of the newly formed mineral layer on the dentin surface, thermal cycling tests were conducted on remineralized samples. After three rounds of peptide-guided remineralization, the sample was placed in a vial containing an artificial saliva solution consisting of 130 mM KCl, 20 mM HEPES, 1.5 mM CaCl2, 0.9 mM KH2PO4, and 1 mM NaCl. In order to mimic the temperature changes in the natural oral environment, the remineralized sample was cycled between 5 C and 50 C, holding for 30 seconds at each temperature. SEM images were taken of the mineral layer after 200 cycles (6 days) and 2,500 cycles (90 days) to compare the effects of thermal cycling at different time periods.

SYENSHSQAINVDRT [shADP5]
fluoride in the mineral layer (EDXS) [1]: incorporated
extent of mineralization reaction versus without peptide [2]: more extensive

SYEKSHSQAINTDRT [sADP5, shortened amelogenin derived peptide 5]
mineral layer after thermal cycling [3]: still present; also recorded: thermally stable
